Data reported in patent US8999964B2, “TGR5 modulators and methods of use thereof” (Intercept Pharmaceuticals, Inc., priority 2008, dated 2015).
pEC50: −log10 of the molar value. Structures can show the parent of a compound that is named as a salt.

Columns and labels:
VDR = molecular target: T1, VDR (Homo sapiens, UniProt P11473); assay: VDR activation, NR selectivity assay; type: biochemical; conditions: Table 6
T1 construct: purchased Invitrogen
T1 sequence (P11473 127-423 limits assumed): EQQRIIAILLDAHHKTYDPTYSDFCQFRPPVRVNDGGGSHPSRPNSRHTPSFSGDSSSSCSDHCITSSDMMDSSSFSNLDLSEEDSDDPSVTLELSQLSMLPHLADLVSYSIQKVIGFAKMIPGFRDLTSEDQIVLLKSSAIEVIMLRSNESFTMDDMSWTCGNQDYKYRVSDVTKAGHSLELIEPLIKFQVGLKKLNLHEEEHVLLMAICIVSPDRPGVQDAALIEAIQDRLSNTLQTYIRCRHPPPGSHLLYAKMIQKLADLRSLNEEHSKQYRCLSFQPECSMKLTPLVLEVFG

hTGR5 = molecular target: T2, hTGR5 (Homo sapiens, UniProt Q8TDU6); assay: FRET-cAMP on TGR5 overexpressing Hek293 cells; type: cell-based; design: Human intestinal cell lines (NCI-H716) were plated in 96-well plates; endogenous in cells
T2 sequence (Q8TDU6 1-330): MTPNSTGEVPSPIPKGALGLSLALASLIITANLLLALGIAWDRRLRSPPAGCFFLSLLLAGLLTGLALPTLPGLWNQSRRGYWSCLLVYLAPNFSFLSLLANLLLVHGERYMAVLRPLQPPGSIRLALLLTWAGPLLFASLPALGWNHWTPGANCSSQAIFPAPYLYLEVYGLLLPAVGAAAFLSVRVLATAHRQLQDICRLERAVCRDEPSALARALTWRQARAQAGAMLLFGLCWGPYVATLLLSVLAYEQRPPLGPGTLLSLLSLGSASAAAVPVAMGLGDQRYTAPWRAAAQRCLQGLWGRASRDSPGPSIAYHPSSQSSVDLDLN

[1] = Bile fistula rat, femoral (iv) infusion: bile flow, biliary secretion, metabolism; conditions: for Conc. in bile: rat bile; for Secretion (biliary): rat
[2] = Critical micellar concentration by surface tension measurements; type: physicochemical
Experimental: The critical micellar concentration (CMC) was determined by surface tension (ST) measurements using a maximum bubble-pressure method which give surface tension values slightly affected by potential impurities […] static methods. […] The surface tension values were plotted against the logarithm of the bile salt concentration; the regression lines corresponding to the two parts of the curve (monomeric and micellar phases) were calculated using the method of least squares, and the intersection of the lines was taken as the CMC value. From the ST vs concentration curves the value of the surface tension at the CMC (equilibrium between monomers and multimers species) was also calculated giving information about the detergency power which is related to the size of the micelles with associate surface tension lowering capacity. The CMC was evaluated by surface tension measurements in non equilibrium conditions i.e. in conditions that impurities slightly affect the surface tension results (FIG. 6). […] The presence of a hydroxyl group in the C-16 beta position reduces the hydrophobic area responsible for back to back interaction, which is to form micelles and therefore, the micelles are small and poorly detergent. This property confers to the molecule a low toxicity when accumulated in a given biological fluid or organ.

LXRα = molecular target: T3, LXRα (Homo sapiens, UniProt Q13133); assay: LXR coactivator recruitment (Alphascreen); type: biochemical; conditions: Table 6
T3 sequence (Q13133 1-447): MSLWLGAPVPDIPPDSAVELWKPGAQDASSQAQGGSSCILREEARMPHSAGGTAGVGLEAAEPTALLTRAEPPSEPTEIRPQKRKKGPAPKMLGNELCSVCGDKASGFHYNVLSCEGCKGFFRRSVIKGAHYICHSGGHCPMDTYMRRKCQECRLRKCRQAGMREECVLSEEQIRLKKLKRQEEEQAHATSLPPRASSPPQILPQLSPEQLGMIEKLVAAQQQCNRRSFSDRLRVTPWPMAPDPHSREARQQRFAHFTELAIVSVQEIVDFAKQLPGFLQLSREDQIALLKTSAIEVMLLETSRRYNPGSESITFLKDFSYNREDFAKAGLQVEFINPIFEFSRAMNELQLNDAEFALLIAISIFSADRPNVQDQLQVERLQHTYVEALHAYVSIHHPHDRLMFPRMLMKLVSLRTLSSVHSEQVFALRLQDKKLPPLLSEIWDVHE

hFXR = molecular target: T4, hFXR (Homo sapiens, UniProt Q96RI1); assay: Alphascreen coactivator recruitment assay on FXR
T4 sequence (Q96RI1 262-486 limits assumed): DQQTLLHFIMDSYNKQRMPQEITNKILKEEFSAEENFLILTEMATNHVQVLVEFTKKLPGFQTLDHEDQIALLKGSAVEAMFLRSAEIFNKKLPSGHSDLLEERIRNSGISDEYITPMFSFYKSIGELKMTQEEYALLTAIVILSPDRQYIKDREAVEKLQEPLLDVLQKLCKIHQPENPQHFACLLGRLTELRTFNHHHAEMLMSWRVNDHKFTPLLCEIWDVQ
Experimental: Activity on FXR was assayed by using Alphascreen technology in a coactivator recruitment assay. AlphaScreen is a bead-based chemistry assay used to study biomolecular interactions. Binding of molecules captured on the beads leads to an energy transfer from one bead to the other, ultimately producing a luminescent signal. When the partners interact, chemical energy is transferred from Donor to Acceptor beads and a signal is produced. Upon bile acids stimulation the GST-FXR-LBD interacts with the Src-1 peptide. Anti-GST-coated Acceptor beads were used to capture the GST-fusion FXR-LBD whereas the biotinylated-SRC-1 peptide was captured by the streptavidin Donor beads. Upon illumination at 680 nm chemical energy is transferred from Donor to Acceptor beads across the complex streptavidin-Donor/Src-1-Biotin/GSTFXR-LBD/Anti-GST-Acceptor and a signal is produced. The assay was performed in white, low-volume, 384-well Optiplates (PerkinElmer) using a final volume of 25 μl containing final concentrations of 10 nM of purified GST-tagged FXR-LBD protein, 30 nM biotinylated Src-1 peptide, 20 μg/ml anti-GST acceptor beads acceptor beads and 10 μg/ml of streptavidin donor bead (PerkinElmer). […] After the addition of the detection mix (acceptor and donor beads), the plates were incubated in the dark for 4 h at room temperature and then were read with an Envision microplate analyzer (PerkinElmer). […]

[3] = 1-Octanol/water partition coefficient (shake-flask); conditions: bile acids as ionized species, pH 8
Experimental: The octanol/water partition coefficient was measured for molecules in their ionized form and therefore the carboxy analogues were studied at a relatively high pH (8 to 9) to ensure full ionization of the carboxyl group. The 1-Octanol/water partition coefficient (log P) was evaluated using a conventional shake-flask procedure. […] The aqueous buffer was previously pre-saturated with 1-octanol, 5 ml of 1-octanol pre-saturated with water was then added and the samples were left to equilibrate for 2 weeks under continuous stirring at room temperature. After centrifugation the two phases were carefully separated. […] The flow rate was 150 μal/min and the column was maintained at 45° C.

PPARδ = molecular target: T5, PPARδ (Homo sapiens, UniProt Q03181); assay: PPARδ activation, NR selectivity assay; conditions: Table 6
T5 sequence (Q03181 211-439 limits assumed): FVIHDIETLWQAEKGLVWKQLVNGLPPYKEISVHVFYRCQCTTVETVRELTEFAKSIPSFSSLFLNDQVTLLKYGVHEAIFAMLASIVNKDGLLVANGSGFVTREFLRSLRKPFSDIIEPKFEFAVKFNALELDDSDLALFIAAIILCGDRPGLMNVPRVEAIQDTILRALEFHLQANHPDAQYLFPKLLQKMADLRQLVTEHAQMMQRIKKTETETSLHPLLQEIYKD

[4] = femoral infusion 1 μmol/kg/min 1 h, 75 min

Q: Which “VDR Activation EC50” value (VDR) does the source give for `CC[C@H]1[C@@H](O)[C@@H]2[C@H](CC[C@]3(C)[C@@H]([C@H](C)CCC(=O)O)[C@@H](O)C[C@@H]23)[C@@]2(C)CC[C@@H](O)C[C@@H]12` [Compound 10, 3α,7α,16β-trihydroxy-6α-ethyl-5β-cholan-24-oic acid sodium salt] here?
A: No activity

Q: What about the pEC50 (hTGR5) of the same compound?
A: 6.70

Q: What about the “Hepatic metabolism, species in bile after iv administration” value ([1]; bile fistula rat, mass spectrometry) of the same compound?
A: secreted in bile as such and mainly conjugated with taurine

Q: And the Conc. in bile [1, 4]?
A: 0.04 mmol/L

Q: What about the “Secretion (biliary)” value [1, 4] of the same compound?
A: 0.002 µmol/kg/min

Q: What about the “Biliary secretion after iv infusion” value ([1]; femoral infusion 1 μmol/kg/min, bile fistula rat) of the same compound?
A: not efficient

Q: And the Conc. in bile ([1]; femoral infusion, 90 min)?
A: 2.3 mmol/L

Q: And the Conc. in bile ([1]; femoral infusion, 120 min)?
A: 0.90 mmol/L

Q: What about the Conc. in bile ([1]; femoral infusion, 150 min) of the same compound?
A: 0.06 mmol/L

Q: What about the Conc. in bile ([1]; femoral infusion, 180 min) of the same compound?
A: 0.04 mmol/L

Q: What about the Conc. in bile ([1]; femoral infusion, 210 min) of the same compound?
A: 0.02 mmol/L

Q: And the “Secretion (biliary)” value ([1]; femoral infusion, 90 min)?
A: 0.127 µmol/kg/min

Q: What about the “Secretion (biliary)” value ([1]; femoral infusion, 120 min) of the same compound?
A: 0.065 µmol/kg/min

Q: What about the “Secretion (biliary)” value ([1]; femoral infusion, 150 min) of the same compound?
A: 0.004 µmol/kg/min

Q: And the “Secretion (biliary)” value ([1]; femoral infusion, 180 min)?
A: 0.003 µmol/kg/min

Q: And the “Secretion (biliary)” value ([1]; femoral infusion, 210 min)?
A: 0.001 µmol/kg/min

Q: What about the “Detergency (CMC and surface tension lowering capacity)” value ([2]; NaCl […]) of the same compound?
A: moderate detergent

Q: And the “CMC […] Na+” value ([2]; […] NaCl water solution)?
A: 5.9 mM

Q: What about the “STCMC: Surface Tension at CMC” value ([2]; […] NaCl water solution) of the same compound?
A: 52.4 Dyne/cm

Q: What about the “LXRα Activation EC50” value (LXRα) of the same compound?
A: No activity

Q: And the pEC50 (hFXR)?
A: 4.92

Q: And the “LogPA-: 1-octanol-water partition coefficient” value [3]?
A: 1.6

Q: And the “PPARδ Activation EC50” value (PPARδ)?
A: No activity
